Assay results as given in patent publication US12509452B2, “Substituted-isoxazoline-containing aromatic compound, preparation method therefor, herbicidal composition and use thereof” (QINGDAO KINGAGROOT CHEMICAL COMPOUND CO., LTD., priority 2019, dated 2025).

Assays:
Experiment in all cases: weeding effect in post-emergence stage
Type in all cases: in vivo
Settings in all cases: dose 15 g a.i./ha
Beckmannia syzigachne = test system: Beckmannia syzigachne
How it was run: (§1)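 Potted weeds were sown, covered with 0.5-2 cm soil and grown in a greenhouse, then sprayed at the 2-3 leaf stage (2 weeks after sowing) via spray tower; compounds in acetone with Tween 80 and 1.5 liter/ha methyl oleate concentrate; doses 500-7.5 g a.i./ha. Fresh-weight control scored on 0-5 levels after 3 weeks; triplicate means.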

Conyza japonica = test system: Conyza japonica
How it was run: as §1

Alopecurus japonicus = test system: Alopecurus japonicus
How it was run: as §1

Rorippa indica = test system: Rorippa indica
How it was run: as §1

| Structure (SMILES) | weeding effect in post-emergence stage, Beckmannia syzigachne (activity level) (Beckmannia syzigachne) | weeding effect in post-emergence stage, Conyza japonica (activity level) (Conyza japonica) | weeding effect in post-emergence stage, Alopecurus japonicus (activity level) (Alopecurus japonicus) | weeding effect in post-emergence stage, Rorippa indica (activity level) (Rorippa indica) |
| --- | --- | --- | --- | --- |
| CCOC(=O)CCCC1(C)CC(c2cc(-n3c(=O)cc(C(F)(F)F)n(C)c3=O)c(F)cc2Cl)=NO1 (stereo not shown) [Compound 1-39] | 5 (Level 5: growth control rate is above 85%) | 5 (Level 5: growth control rate is above 85%) | 5 (Level 5: growth control rate is above 85%) | 5 (Level 5: growth control rate is above 85%) |
| COC(=O)C1(C)CC(c2cc(-n3c(=O)n(C)c(=S)n(C)c3=O)c(F)cc2Cl)=NO1 (stereo not shown) [Compound 1-60] | 5 (Level 5: growth control rate is above 85%) | 5 (Level 5: growth control rate is above 85%) | 5 (Level 5: growth control rate is above 85%) | 5 (Level 5: growth control rate is above 85%) |
| CCOC(=O)C1(C)CC(c2cc(-n3c(=O)n(C)c(=S)n(C)c3=O)c(Cl)cc2Cl)=NO1 (stereo not shown) [Compound 1-61] | 5 (Level 5: growth control rate is above 85%) | 5 (Level 5: growth control rate is above 85%) | 5 (Level 5: growth control rate is above 85%) | 5 (Level 5: growth control rate is above 85%) |
| CCOC(=O)[C@]1(C)CC(c2cc(-n3c(=O)n(C)c(=S)n(C)c3=O)c(F)cc2Cl)=NO1 [Compound 1-62] | 5 (Level 5: growth control rate is above 85%) | 5 (Level 5: growth control rate is above 85%) | 5 (Level 5: growth control rate is above 85%) | 5 (Level 5: growth control rate is above 85%) |
| CCOC(=O)C1(C)CC(c2cc(-n3c(=O)n(CC)c(=S)n(CC)c3=O)c(F)cc2Cl)=NO1 (stereo not shown) [Compound 1-64] | 5 (Level 5: growth control rate is above 85%) | 5 (Level 5: growth control rate is above 85%) | 5 (Level 5: growth control rate is above 85%) | 5 (Level 5: growth control rate is above 85%) |
| CCOC(=O)C1(C)CC(c2cc(-n3c(=O)n(C(C)C)c(=S)n(C(C)C)c3=O)c(F)cc2Cl)=NO1 (stereo not shown) [Compound 1-65] | 5 (Level 5: growth control rate is above 85%) | 5 (Level 5: growth control rate is above 85%) | 5 (Level 5: growth control rate is above 85%) | 5 (Level 5: growth control rate is above 85%) |
| CCOC(=O)C1(C)CC(c2cc(-n3c(=O)n(C4CC4)c(=S)n(C4CC4)c3=O)c(F)cc2Cl)=NO1 (stereo not shown) [Compound 1-66] | 5 (Level 5: growth control rate is above 85%) | 5 (Level 5: growth control rate is above 85%) | 5 (Level 5: growth control rate is above 85%) | 5 (Level 5: growth control rate is above 85%) |
| CCOC(=O)C1(C)CC(c2cc(-n3c(=O)n(C)c(=S)n(C)c3=O)c(F)cc2C(F)(F)F)=NO1 (stereo not shown) [Compound 1-67] | 5 (Level 5: growth control rate is above 85%) | 5 (Level 5: growth control rate is above 85%) | 5 (Level 5: growth control rate is above 85%) | 5 (Level 5: growth control rate is above 85%) |
| CCOC(=O)C1(C)CC(c2cc(-n3c(=O)n(C)c(=S)n(C)c3=O)c(F)cc2C#N)=NO1 (stereo not shown) [Compound 1-69] | 5 (Level 5: growth control rate is above 85%) | 5 (Level 5: growth control rate is above 85%) | 5 (Level 5: growth control rate is above 85%) | 5 (Level 5: growth control rate is above 85%) |
| CCCOC(=O)C1(C)CC(c2cc(-n3c(=O)n(C)c(=S)n(C)c3=O)c(F)cc2Cl)=NO1 (stereo not shown) [Compound 1-70] | 5 (Level 5: growth control rate is above 85%) | 5 (Level 5: growth control rate is above 85%) | 5 (Level 5: growth control rate is above 85%) | 5 (Level 5: growth control rate is above 85%) |
